The text below walks through data of PMC10455244, “Alpha-Mangostin: A Potent Inhibitor of TRPV3 and Pro-Inflammatory Cytokine Secretion in Keratinocytes” (International Journal of Molecular Sciences, 2023).

The subject of this assay is IL-6. Kind of assay: ELISA, carvacrol-induced IL-6 release in NHEK. The assay is classed as cell-based, human. The following applies: 1 µM with 300 µM carvacrol, 24 h. An excerpt:
Constitutive activation of TRPV3 due to continuous stimulation or the presence of Olmsted mutations causes noticeable skin inflammation due to the increased secretion of pro-inflammatory cytokines from the keratinocytes. Besides, in atopic dermatitis (AD), cytokine release from keratinocytes contributes to the inflammatory environment, which drives many characteristic AD symptoms. Therefore, we determined the effect of TRPV3 activation on cytokine release instead of TRPV3 expression and evaluated whether alpha-mangostin suppressed TRPV3-mediated cytokine secretion in normal human keratinocytes. The levels of secreted cytokines (interleukin (IL)-6, IL-8, and tumor necrosis factor-alpha (TNF-α)) were measured using enzyme-linked Immunosorbent assay (ELISA) kits due to their high sensitivity and quantitation ability. The cells were induced with 300 µM carvacrol, with or without 1 µM alpha-mangostin, and 10 µM 74a.
Figure 5 Alpha-mangostin (α-MG) inhibited carvacrol-induced cytokine release in NHEK cells and rescued carvacrol-induced cell death. (A) Alpha-mangostin inhibited the carvacrol-induced release of IL-8 and IL-6 in NHEK. Cells were induced by 300 µM carvacrol with or without either 1 µM alpha-mangostin or 10 µM 74a for 24 h before the ELISA assay. (B) Alpha-mangostin reduced cell death caused by carvacrol in human keratinocytes. […]
(In general: An ELISA detects its analyte on a solid surface through an enzyme-linked reagent.)

The structures appear in SMILES notation.

For the molecule `COc1c(O)cc2oc3cc(O)c(CC=C(C)C)c(O)c3c(=O)c2c1CC=C(C)C` [Alpha-mangostin], the “Effect on IL-6 levels” value is on record as “slightly decreased”.
